From patent publication US9340521B2, “Method for dual inhibition of SGLT1 and SGLT2 using diphenylmethane derivatives” (GREEN CROSS CORPORATION, priority 2013, dated 2016)

Tests used:
Human SGLT2 (hSGLT2) = Human SGLT2 (hSGLT2) (Homo sapiens (Human), UniProt P31639); assay: Inhibitory effects on human SGLT2 activities (14C-AMG uptake, sodium-dependent glucose transport assay); type: cell-based; conditions: hSGLT2-expressing CHO cells, 37° C. for 2 h, single determinations
How it was run: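 CHO cells stably expressing hSGLT2 were preincubated 10 min at 37 °C in choline (Na+-free) buffer, then exposed 2 h at 37 °C to compound in Na+ uptake buffer with 8 μM 14C-AMG and 1 mM unlabeled AMG. Radioactivity was scintillation counted; IC50 came from nonlinear regression.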

Human SGLT1 (hSGLT1) = Human SGLT1 (hSGLT1) (Homo sapiens (Human), UniProt P13866); assay: Inhibitory effects on human SGLT1 activities (14C-AMG uptake, sodium-dependent glucose transport assay); type: cell-based; conditions: 37° C. for 2 h, single determinations
Sequence of Human SGLT1 (hSGLT1) (P13866 whole entry): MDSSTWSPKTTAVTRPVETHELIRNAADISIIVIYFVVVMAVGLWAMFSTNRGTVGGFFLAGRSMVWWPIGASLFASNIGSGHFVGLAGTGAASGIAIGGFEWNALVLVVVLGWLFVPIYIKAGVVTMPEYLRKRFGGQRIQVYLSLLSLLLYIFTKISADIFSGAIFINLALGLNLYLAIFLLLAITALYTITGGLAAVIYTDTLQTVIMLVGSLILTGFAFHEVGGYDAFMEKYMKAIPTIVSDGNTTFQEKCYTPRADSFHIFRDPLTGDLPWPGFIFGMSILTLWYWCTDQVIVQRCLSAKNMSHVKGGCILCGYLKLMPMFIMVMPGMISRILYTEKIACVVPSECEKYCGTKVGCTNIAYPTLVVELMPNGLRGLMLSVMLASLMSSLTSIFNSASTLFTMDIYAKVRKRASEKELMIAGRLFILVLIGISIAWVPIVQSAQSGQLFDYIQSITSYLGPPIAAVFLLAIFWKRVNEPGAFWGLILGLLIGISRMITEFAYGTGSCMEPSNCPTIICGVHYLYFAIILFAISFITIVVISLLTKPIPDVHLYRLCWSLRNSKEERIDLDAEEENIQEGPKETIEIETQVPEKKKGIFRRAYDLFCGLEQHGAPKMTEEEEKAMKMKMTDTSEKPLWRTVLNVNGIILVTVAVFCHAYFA

Sequence of Human SGLT2 (hSGLT2) (P31639 whole entry): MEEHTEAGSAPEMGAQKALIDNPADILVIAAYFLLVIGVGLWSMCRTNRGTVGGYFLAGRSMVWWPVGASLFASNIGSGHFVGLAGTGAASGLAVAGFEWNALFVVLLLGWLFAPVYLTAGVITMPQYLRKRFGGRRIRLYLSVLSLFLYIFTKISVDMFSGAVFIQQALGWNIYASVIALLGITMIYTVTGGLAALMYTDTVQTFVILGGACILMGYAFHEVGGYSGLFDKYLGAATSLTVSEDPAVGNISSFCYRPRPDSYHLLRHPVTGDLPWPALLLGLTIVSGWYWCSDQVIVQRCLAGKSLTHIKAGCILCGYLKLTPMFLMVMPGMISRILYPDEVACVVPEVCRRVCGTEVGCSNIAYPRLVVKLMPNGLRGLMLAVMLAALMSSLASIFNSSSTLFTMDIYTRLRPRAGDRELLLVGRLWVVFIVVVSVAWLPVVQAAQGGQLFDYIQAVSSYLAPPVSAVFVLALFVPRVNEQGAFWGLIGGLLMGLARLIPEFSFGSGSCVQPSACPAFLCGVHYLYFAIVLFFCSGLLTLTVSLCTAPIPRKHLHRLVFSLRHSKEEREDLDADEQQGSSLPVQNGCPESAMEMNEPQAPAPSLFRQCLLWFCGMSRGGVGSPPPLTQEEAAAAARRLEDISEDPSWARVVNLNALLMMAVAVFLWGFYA

Row | Structure (SMILES) | IC50 (Human SGLT2 (hSGLT2)) [µM] | IC50 (Human SGLT1 (hSGLT1)) [µM]
1 | COc1ccc(Cc2cc([C@@H]3O[C@H](CO)[C@@H](O)[C@H](O)[C@H]3O)c3c(c2C)OCO3)cc1 [Compound E063, (2R,3S,4R,5R,6S)-2-(Hydroxymethyl)-6-(6-(4-methoxybenzyl)-7-methylbenzo[d][1,3]dioxol-4-yl)tetrahydro-2H-pyran-3,4,5-triol] | 0.0016 | 0.0662
2 | CCc1ccc(Cc2cc([C@@H]3O[C@H](CO)[C@@H](O)[C@H](O)[C@H]3O)c3c(c2C)OCO3)cc1 [Compound E064, (2S,3R,4R,5S,6R)-2-(6-(4-Ethylbenzyl)-7-methylbenzo[d][1,3]dioxol-4-yl)-6-(hydroxymethyl)tetrahydro-2H-pyran-3,4,5-triol] | 0.0011 | 0.0383
3 | CCOc1ccc(Cc2cc([C@@H]3O[C@H](CO)[C@@H](O)[C@H](O)[C@H]3O)c3c(c2C)OCO3)cc1 [Compound E065, (2S,3R,4R,5S,6R)-2-(6-(4-Ethoxybenzyl)-7-methylbenzo[d][1,3]dioxol-4-yl)-6-(hydroxymethyl)tetrahydro-2H-pyran-3,4,5-triol] | 0.0016 | 0.155
